How the values were obtained:
Assay in all cases: Test C preemergence
Assay type in all cases: in vivo
soybean (Glycine max) = settings: Glycine max, pre-emergence, preemergence, scale 0 to 100, read-out: Plant response rating, Soybean
Outline: (§1)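 Greenhouse test; preemergence on seeded loam-sand soil or spray on 1- to 4-leaf plants; solvent + surfactant vehicle; 13-15 day hold; visual comparison with controls; 0 (no effect)-100 (complete control).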

[1] = system: ragweed (common ragweed, Ambrosia elatior); settings: Ambrosia artemisiifolia, pre-emergence, 336 h, preemergence, scale 0 to 100, read-out: Plant response rating, Ragweed
Outline: as §1

[2] = system: blackgrass (Alopecurus myosuroides); settings: Alopecurus myosuroides, pre-emergence, 336 h, scale 0 to 100, read-out: Plant response rating, Blackgrass
Outline: as §1

[3] = system: winter wheat (Triticum aestivum); settings: Triticum aestivum, pre-emergence, 336 h, scale 0 to 100, read-out: Plant response rating, Wheat
Outline: as §1

[4] = system: pigweed (Amaranthus retroflexus); settings: Amaranthus retroflexus, pre-emergence, 336 h, scale 0 to 100, read-out: Plant response rating, Pigweed
Outline: as §1

[5] = system: giant foxtail (Setaria faberii); settings: Setaria faberi, pre-emergence, 336 h, scale 0 to 100, read-out: Plant response rating, Foxtail, Giant
Outline: as §1

[6] = system: large (Lg) crabgrass (Digitaria sanguinalis); settings: Digitaria sanguinalis, pre-emergence, 336 h, scale 0 to 100, read-out: Plant response rating, Crabgrass, Large
Outline: as §1

[7] = system: velvetleaf (Abutilon theophrasti); settings: Abutilon theophrasti, pre-emergence, scale 0 to 100, read-out: Plant response rating, Velvetleaf
Outline: as §1

[8] = system: morningglory (Ipomoea coccinea); settings: Ipomoea, pre-emergence, 336 h, scale 0 to 100, read-out: Plant response rating, Morningglory
Outline: as §1

[9] = system: johnsongrass (Sorghum halepense); settings: Sorghum halepense, pre-emergence, 336 h, scale 0 to 100, read-out: Plant response rating, Johnsongrass
Outline: as §1

[10] = system: waterhemp (common waterhemp, Amaranthus rudis); settings: Amaranthus tuberculatus, pre-emergence, scale 0 to 100, read-out: Plant response rating, Waterhemp
Outline: as §1

[11] = system: Italian ryegrass (Lolium multiflorum); settings: Lolium multiflorum, pre-emergence, 336 h, scale 0 to 100, read-out: Plant response rating, Ryegrass, Italian
Outline: as §1

[12] = system: barnyardgrass (Echinochloa crus-galli); settings: Echinochloa crus-galli, pre-emergence, read-out: Plant response rating, Barnyardgrass
Outline: as §1

corn (Zea mays) = settings: Zea mays, pre-emergence, 336 h, scale 0 to 100
Outline: as §1

[13] = system: oilseed rape (Brassica napus); settings: Brassica napus, pre-emergence, preemergence, scale 0 to 100, read-out: Plant response rating, Oilseed Rape
Outline: as §1

Structure (SMILES): N#Cc1cccc(Oc2ncc(Br)cn2)c1Oc1ncc(Cl)cn1 [Compound 5, 3-[(5-bromo-2-pyrimidinyl)oxy]-2-[(5-chloro-2-pyrimidinyl)oxy]benzonitrile]
- plant injury at 31 g/ha (soybean (Glycine max); 31 g ai/ha): 45%
- plant injury at 62 g/ha (soybean (Glycine max); 62 g ai/ha): 65%
- plant injury at 125 g/ha (soybean (Glycine max); 125 g ai/ha): 85%
- pest or weed control at 31 g/ha ([1]; 31 g ai/ha): 20%
- pest or weed control at 62 g/ha ([1]; 62 g ai/ha): 80%
- pest or weed control at 125 g/ha ([1]; 125 g ai/ha): 100%
- pest or weed control at 31 g/ha ([2]; 31 g ai/ha, preemergence): 30%
- pest or weed control at 62 g/ha ([2]; 62 g ai/ha, preemergence): 40%
- pest or weed control at 125 g/ha ([2]; 125 g ai/ha, preemergence): 70%
- pest or weed control at 16 g/ha ([2]; Preemergence, 16 g ai/ha): 10%
- plant injury at 31 g/ha ([3]; 31 g ai/ha, preemergence): 0%
- plant injury at 62 g/ha ([3]; 62 g ai/ha, preemergence): 5%
- plant injury at 125 g/ha ([3]; 125 g ai/ha, preemergence): 35%
- plant injury at 16 g/ha ([3]; Preemergence, 16 g ai/ha): 0%
- pest or weed control at 31 g/ha ([4]; 31 g ai/ha, preemergence): 100%
- pest or weed control at 62 g/ha ([4]; 62 g ai/ha, preemergence): 100%
- pest or weed control at 125 g/ha ([4]; 125 g ai/ha, preemergence): 100%
- pest or weed control at 16 g/ha ([4]; Preemergence, 16 g ai/ha): 100%
- pest or weed control at 31 g/ha ([5]; 31 g ai/ha, preemergence): 80%
- pest or weed control at 62 g/ha ([5]; 62 g ai/ha, preemergence): 100%
- pest or weed control at 125 g/ha ([5]; 125 g ai/ha, preemergence): 100%
- pest or weed control at 16 g/ha ([5]; Preemergence, 16 g ai/ha): 30%
- pest or weed control at 31 g/ha ([6]; 31 g ai/ha, preemergence): 98%
- pest or weed control at 62 g/ha ([6]; 62 g ai/ha, preemergence): 100%
- pest or weed control at 125 g/ha ([6]; 125 g ai/ha, preemergence): 100%
- pest or weed control at 16 g/ha ([6]; Preemergence, 16 g ai/ha): 70%
- pest or weed control at 31 g/ha ([7]; 31 g ai/ha, preemergence): 90%
- pest or weed control at 62 g/ha ([7]; 62 g ai/ha, preemergence): 100%
- pest or weed control at 125 g/ha ([7]; 125 g ai/ha, preemergence): 100%
- pest or weed control at 16 g/ha ([7]; Preemergence, 16 g ai/ha): 60%
- pest or weed control at 31 g/ha ([8]; 31 g ai/ha, preemergence): 60%
- pest or weed control at 62 g/ha ([8]; 62 g ai/ha, preemergence): 80%
- pest or weed control at 125 g/ha ([8]; 125 g ai/ha, preemergence): 95%
- pest or weed control at 16 g/ha ([8]; Preemergence, 16 g ai/ha): 30%
- pest or weed control at 31 g/ha ([9]; 31 g ai/ha, preemergence): 40%
- pest or weed control at 62 g/ha ([9]; 62 g ai/ha, preemergence): 70%
- pest or weed control at 125 g/ha ([9]; 125 g ai/ha, preemergence): 80%
- pest or weed control at 16 g/ha ([9]; Preemergence, 16 g ai/ha): 0%
- pest or weed control at 31 g/ha ([10]; 31 g ai/ha, preemergence): 100%
- pest or weed control at 62 g/ha ([10]; 62 g ai/ha, preemergence): 100%
- pest or weed control at 125 g/ha ([10]; 125 g ai/ha, preemergence): 100%
- pest or weed control at 16 g/ha ([10]; Preemergence, 16 g ai/ha): 85%
- pest or weed control at 31 g/ha ([11]; 31 g ai/ha, preemergence): 5%
- pest or weed control at 62 g/ha ([11]; 62 g ai/ha, preemergence): 55%
- pest or weed control at 125 g/ha ([11]; 125 g ai/ha, preemergence): 60%
- pest or weed control at 16 g/ha ([11]; Preemergence, 16 g ai/ha): 0%
- pest or weed control at 31 g/ha ([12]; 31 g ai/ha, preemergence, scale 0 to 100): 60%
- pest or weed control at 62 g/ha ([12]; 62 g ai/ha, preemergence, scale 0 to 100): 85%
- pest or weed control at 125 g/ha ([12]; 125 g ai/ha, preemergence, scale 0 to 100): 98%
- pest or weed control at 16 g/ha ([12]; Preemergence, 16 g ai/ha, scale 0 to 100 (0 no effect, 100 complete control)): 20%
- Corn plant response rating (crop injury, 0 = no effect, 100 = complete kill) at 31 g/ha (corn (Zea mays); 31 g ai/ha, preemergence): 25%
- Corn plant response rating (crop injury, 0 = no effect, 100 = complete kill) at 62 g/ha (corn (Zea mays); 62 g ai/ha, preemergence): 60%
- Corn plant response rating (crop injury, 0 = no effect, 100 = complete kill) at 125 g/ha (corn (Zea mays); 125 g ai/ha, preemergence): 75%
- Corn plant response rating (crop injury, 0 = no effect, 100 = complete kill) at 16 g/ha (corn (Zea mays); Preemergence, 16 g ai/ha): 5%
- plant injury at 31 g/ha ([13]; 31 g ai/ha): 70%
- plant injury at 62 g/ha ([13]; 62 g ai/ha): 98%
- plant injury at 125 g/ha ([13]; 125 g ai/ha): 100%
